Source: patent publication US9750449B2, “Method of assessing skin” (Johnson & Johnson Consumer Inc., priority 2003, dated 2017)

Key:
facial skin [1] = assay: In vivo facial skin fluorescence after daily topical retinol cream versus vehicle; parameters: species or system human; conditions: cheek
Source text: In vivo fluorescence spectroscopy can be performed for example using a fiber optic probe attached to a spectrofluorimeter (e.g. the model SkinSkan (J Y Horiba, Edison, N.J.)). The method requires: a) a UV radiation source (e.g., a Xenon arc lamp or a mercury lamp), b) a method of selecting the radiation wavelength (e.g. a monochromator, a prism, or a grating), c) a method of delivery of the radiation to the tissue (e.g. a fiber bundle), d) a method of collection of the emitted radiation from the tissue (e.g. a fiber bundle), e) a method of selecting the emitted radiation wavelength (e.g. a monochromator, a prism, or a grating), and f) a method of detecting the emitted radiation (e.g. a photomultiplier, a single photodiode, a photodiode array, or a CCD array). See, e.g., Stamatas G N, et al., J Invest Dermatol 118(2):295-302, 2002.
Measurements were preformed by placing the fiber optic probe in contact with the skin site of interest. Before each set of measurements, the instrument was spectrally calibrated for excitation and emission in the region 250-650 nm. […]
Acquisition of excitation spectra was the preferred method of measuring in vivo skin fluorescence. […]
In order to account for variations in skin native pigmentation that attenuates the detected fluorescence signal, fluorescence intensity was normalized with the diffuse reflectance signal of the same skin site at the corresponding wavelength. […] The measured fluorescence in this wavelength region arises from the dermis (Gillies et al, 2000, Kollias et al, 1998), which means that excitation light has to travel through the whole epidermis where it is attenuated by epidermal melanin and proteins, both of which absorb strongly in the UV. […] Furthermore, the intensity of the light source is low below 300 nm and normalization of the fluorescence by the diffuse reflectance signal in this wavelength range amplified the noise. […] To overcome this problem, the tryptophan fluorescence signal may be normalized to another fluorescence band, rather than to the diffuse reflectance value at 295 nm. […]

facial skin [2] = assay: Visual observation of the appearance of wrinkles in treated areas; type: in vivo, human; conditions: cream with 0.15% retinol applied daily, vehicle cream alone had no effect

Structure (SMILES): CC1=C(/C=C/C(C)=C/C=C/C(C)=C/CO)C(C)(C)CCC1 [retinol]
- rate of decrease in the 295 nm band fluorescence (facial skin [1]; cream with 0.15% retinol and SPF 15 sunscreen applied daily, measured at baseline, 3 and 6 months, placebo −0.04 units/month): −0.01 units/month
- change of the 390 nm band fluorescence over the period of the study (facial skin [1]; cream with 0.15% retinol applied daily, 6 months): did not significantly change
- normalized tryptophan fluorescence values (I295nm/I390nm) over time (facial skin [1]; cream with 0.15% retinol applied daily, 6 months, p<0.05 versus vehicle (−0.062±0.029 ratio units per month)): remained virtually constant
- appearance of wrinkles (visual observations) (facial skin [2]): reduction in the appearance of wrinkles
